Test results: ChEMBL document CHEMBL1811878, “Heteroatom-substituted analogues of orphan nuclear receptor small heterodimer partner ligand and apoptosis inducer (E)-4-[3-(1-Adamantyl)-4-hydroxyphenyl]-3-chlorocinnamic acid” (J Med Chem, 2011)
In brackets after ≈: the same amount, converted by molar mass. One block for each compound: values may come before it. Activity calls are given as the source filed them. The rule behind the calls is not given here.

Key:
[1] = biological target: T1, Retinoic acid receptor alpha (Homo sapiens) (UniProt P10276); experiment: Transcriptional activation of human RARalpha at 1 uM by (TREpal)2-tk-CAT reporter gene assay
T1 sequence (whole entry): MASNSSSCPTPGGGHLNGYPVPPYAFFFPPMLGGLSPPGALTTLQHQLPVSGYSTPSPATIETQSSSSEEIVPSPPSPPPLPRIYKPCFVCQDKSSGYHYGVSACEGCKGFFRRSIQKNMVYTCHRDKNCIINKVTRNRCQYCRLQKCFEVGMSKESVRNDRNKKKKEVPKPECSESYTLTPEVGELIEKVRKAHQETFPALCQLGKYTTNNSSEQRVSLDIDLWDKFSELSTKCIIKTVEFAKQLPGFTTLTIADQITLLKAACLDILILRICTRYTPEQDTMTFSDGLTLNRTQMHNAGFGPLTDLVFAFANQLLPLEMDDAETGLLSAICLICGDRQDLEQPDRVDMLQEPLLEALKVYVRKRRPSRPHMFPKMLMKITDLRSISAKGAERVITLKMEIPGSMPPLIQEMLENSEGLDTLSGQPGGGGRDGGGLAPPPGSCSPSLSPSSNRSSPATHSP

[2] = biological target: T2, Retinoic acid receptor beta (Homo sapiens) (UniProt P10826); experiment: Transcriptional activation of human RARbeta at 0.1 uM by luciferase reporter gene assay relative to control
T2 sequence (whole entry): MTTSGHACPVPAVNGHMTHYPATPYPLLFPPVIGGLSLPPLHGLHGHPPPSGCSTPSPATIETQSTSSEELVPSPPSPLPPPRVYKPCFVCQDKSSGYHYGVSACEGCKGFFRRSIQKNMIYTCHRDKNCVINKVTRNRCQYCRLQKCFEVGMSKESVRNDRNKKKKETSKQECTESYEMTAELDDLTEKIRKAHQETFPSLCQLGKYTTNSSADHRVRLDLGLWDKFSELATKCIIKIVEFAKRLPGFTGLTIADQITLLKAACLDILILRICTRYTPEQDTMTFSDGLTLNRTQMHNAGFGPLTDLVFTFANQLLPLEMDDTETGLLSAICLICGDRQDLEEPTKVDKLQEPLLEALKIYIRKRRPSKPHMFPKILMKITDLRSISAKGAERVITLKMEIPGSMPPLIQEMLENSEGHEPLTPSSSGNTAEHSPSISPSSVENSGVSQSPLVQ

OVCAR-3 = experiment: Antiproliferative activity against human OVCAR3 cell; assay type: functional, cell-based
[3] = biological target: T1, Retinoic acid receptor alpha (Homo sapiens); experiment: Transcriptional activation of human RARalpha at 0.1 uM by luciferase reporter gene assay relative to control
[4] = biological target: T3, Retinoic acid receptor gamma (Homo sapiens) (UniProt P13631); experiment: Transcriptional activation of human RARgamma at 0.1 uM by luciferase reporter gene assay relative to control
T3 sequence (whole entry): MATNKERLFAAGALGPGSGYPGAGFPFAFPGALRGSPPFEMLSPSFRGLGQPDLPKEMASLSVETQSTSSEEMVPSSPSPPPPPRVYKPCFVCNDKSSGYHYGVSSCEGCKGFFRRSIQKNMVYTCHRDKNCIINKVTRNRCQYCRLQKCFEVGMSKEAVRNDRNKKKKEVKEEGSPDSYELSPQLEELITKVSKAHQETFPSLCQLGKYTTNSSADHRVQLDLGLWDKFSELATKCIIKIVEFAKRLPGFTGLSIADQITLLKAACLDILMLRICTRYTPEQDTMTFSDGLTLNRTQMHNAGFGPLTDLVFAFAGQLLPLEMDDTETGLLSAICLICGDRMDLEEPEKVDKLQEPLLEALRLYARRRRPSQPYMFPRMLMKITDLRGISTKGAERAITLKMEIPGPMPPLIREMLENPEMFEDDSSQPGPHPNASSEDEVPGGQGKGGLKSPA

[5] = Induction of apoptosis in retinoid-resistant p53 null human HL60R cells assessed as DNA fragmentation at 0.1 uM after 24 hrs by acridine orange staining method; assay type: functional
[6] = Induction of apoptosis in retinoid-resistant p53 null human HL60R cells assessed as DNA fragmentation at 1 uM after 24 hrs by acridine orange staining method; assay type: functional
[7] = biological target: T2, Retinoic acid receptor beta (Homo sapiens); experiment: Transcriptional activation of human RARbeta at 1 uM by (TREpal)2-tk-CAT reporter gene assay
[8] = biological target: T3, Retinoic acid receptor gamma (Homo sapiens); experiment: Transcriptional activation of human RARgamma at 1 uM by (TREpal)2-tk-CAT reporter gene assay
Mus musculus [9] = experiment: Toxicity in ICR-SCIDS mouse assessed as increase in body weight at 20 mg/kg, iv qd administered at a 25% increment in dose each day for 7 days measured on day 1; assay type: organism-based; parameters: dose 20 mg/kg, route intravenous; conditions: in vivo, 168 h
HT-29 [10] = experiment: Induction of apoptosis in human HT-29 cells assessed as decrease in ATP level after 72 hrs by luminescence assay; assay type: functional, cell-based
KG-1 [11] = experiment: Growth inhibition in human KG1 cells expressing p53 gene at 5 uM after 48 hrs by MTT assay; assay type: functional; conditions: KG-1, 48 h, read-out: GI
Mus musculus [12] = experiment: Toxicity in ICR-SCIDS mouse harboring xenograft assessed as occurrence of scruffy coat at 20 mg/kg, iv qd administered alternate days for a total of 15 doses measured on day 9; assay type: organism-based; parameters: dose 20 mg/kg, route intravenous; conditions: in vivo
Mus musculus [13] = experiment: Toxicity in ICR-SCIDS mouse harboring xenograft assessed as decreased physical activity at 20 mg/kg, iv qd administered alternate days for a total of 15 doses measured on day 9; assay type: organism-based; parameters: dose 20 mg/kg, route intravenous; conditions: in vivo
KG-1 [14] = experiment: Induction of apoptosis in human KG1 cells assessed as DNA fragmentation at 5 uM after 48 hrs by acridine orange staining method; assay type: functional
Mus musculus [15] = experiment: Toxicity in ICR-SCIDS mouse harboring xenograft assessed as occurrence of diarrhea at 20 mg/kg, iv qd administered alternate days for a total of 15 doses measured on day 9; assay type: organism-based; parameters: dose 20 mg/kg, route intravenous; conditions: in vivo
[16] = Aqueous solubility of the compound in PBS at pH 7.2 by UV spectrophotometric analysis; assay type: physicochemical; conditions: PBS, read-out: solubility
A549 [17] = experiment: Induction of apoptosis in human A549 cells assessed as decrease in ATP level at 10 uM after 72 hrs by luminescence assay; assay type: functional, cell-based
PC-3 [18] = experiment: Induction of apoptosis in human PC3 cells assessed as decrease in ATP level at 5 uM after 72 hrs by luminescence assay; assay type: functional; parameters: scale not given: the % may be the effect or the level left
A549 [19] = experiment: Induction of apoptosis in human A549 cells assessed as decrease in ATP level at 5 uM after 72 hrs by luminescence assay; assay type: functional; parameters: scale not given: the % may be the effect or the level left
A549 [20] = experiment: Induction of apoptosis in human A549 cells assessed as decrease in ATP level after 72 hrs by luminescence assay; assay type: functional, cell-based
HT-29 [21] = experiment: Induction of apoptosis in human HT-29 cells assessed as decrease in ATP level at 10 uM after 72 hrs by luminescence assay; assay type: functional
HT-29 [22] = experiment: Induction of apoptosis in human HT-29 cells assessed as decrease in ATP level at 5 uM after 72 hrs by luminescence assay; assay type: functional; parameters: scale not given: the % may be the effect or the level left
Mus musculus [23] = experiment: Toxicity in ICR-SCIDS mouse assessed as increase in body weight at 20 mg/kg, iv qd administered at a 25% increment in dose each day for 7 days measured on day 4; assay type: organism-based; parameters: dose 20 mg/kg, route intravenous; conditions: in vivo, 168 h
KG-1 [24] = experiment: Growth inhibition in human KG1 cells expressing p53 gene at 1 uM after 48 hrs by MTT assay; assay type: functional; conditions: KG-1, 48 h, read-out: GI
Mus musculus [25] = experiment: Toxicity in ICR-SCIDS mouse assessed as decrease in body weight at 20 mg/kg, iv qd administered at a 25% increment in dose each day for 7 days measured on day 8 relative to control; assay type: organism-based; parameters: dose 20 mg/kg, route intravenous; scale not given: the % may be the effect or the level left; conditions: in vivo, 168 h
[26] = Induction of apoptosis in mouse MMTV-Wnt-1 cells assessed as cell viability after 72 hrs by DAPI staining based cell counting; assay type: functional
Mus musculus [27] = experiment: Toxicity in ICR-SCIDS mouse assessed as decrease in body weight at 20 mg/kg, iv qd administered at a 25% increment in dose each day for 7 days measured on day 7 relative to body weight on day 1; assay type: organism-based; parameters: dose 20 mg/kg, route intravenous; scale not given: the % may be the effect or the level left; conditions: in vivo, 168 h
KG-1 [28] = experiment: Induction of apoptosis in human KG1 cells expressing p53 gene assessed as DNA fragmentation at 1 uM after 48 hrs by acridine orange staining method; assay type: functional
Mus musculus [29] = experiment: Toxicity in ICR-SCIDS mouse harboring xenograft assessed as exhibiting symptoms of dehydration at 20 mg/kg, iv qd administered alternate days for a total of 15 doses measured on day 9; assay type: organism-based; parameters: dose 20 mg/kg, route intravenous; conditions: in vivo
PC-3 [30] = experiment: Induction of apoptosis in human PC3 cells assessed as decrease in ATP level after 72 hrs by luminescence assay; assay type: functional, cell-based
Mus musculus [31] = experiment: Toxicity in ICR-SCIDS mouse harboring xenograft assessed as body weight loss at 20 mg/kg, iv qd administered alternate days for a total of 15 doses measured on day 9; assay type: organism-based; parameters: dose 20 mg/kg, route intravenous; conditions: in vivo
PC-3 [32] = experiment: Induction of apoptosis in human PC3 cells assessed as decrease in ATP level at 10 uM after 72 hrs by luminescence assay; assay type: functional, cell-based

Activity [1]: 21% | fold change (FC) [2]: 20 | IC50 (OVCAR-3): 130 nM | fold change (FC) [3]: 10 | fold change (FC) [4]: 50 | Activity [7]: 78% | Activity [8]: 88%
SMILES: O=C(O)c1ccc2cc(-c3ccc(O)c(C45CC6CC(CC(C6)C4)C5)c3)ccc2c1 [O-DEMETHYLATED ADAPALENE]
Activity [5]: 73% | Activity [6]: 98%

solubility [16]: 0.44 µM (≈ 0.166 µg/mL)
SMILES: O=C(O)/C=C/c1cnc(-c2ccc(O)c(C34CC5CC(CC(C5)C3)C4)c2)nc1
Activity (Mus musculus [9]): 5.7% | Activity (HT-29 [10]): Dose-dependent effect | inhibition of growth at 5 µM (KG-1 [11]): 100% | Activity (Mus musculus [12]): Non-toxic | Activity (Mus musculus [13]): Non-toxic | Activity (KG-1 [14]): 50% | Activity (Mus musculus [15]): Non-toxic | Activity (A549 [17]): Active | Activity (PC-3 [18]): 35% | Activity (A549 [19]): 35% | Activity (A549 [20]): Dose-dependent effect | Activity (HT-29 [21]): inactive | Activity (HT-29 [22]): 15% | Activity (Mus musculus [23]): 5.7% | inhibition of growth at 1 µM (KG-1 [24]): 100% | Activity (Mus musculus [25]): 100% | IC50 [26]: 60 nM | Activity (Mus musculus [27]): 100.9% | Activity (KG-1 [28]): 40% | Activity (Mus musculus [29]): Non-toxic | Activity (PC-3 [30]): Dose-dependent effect | Activity (Mus musculus [31]): Non-toxic | Activity (PC-3 [32]): Active
